Target: T1, Broad substrate specificity ATP-binding cassette transporter ABCG2 (Homo sapiens, UniProt Q9UNQ0)
T1 sequence (Q9UNQ0 whole entry): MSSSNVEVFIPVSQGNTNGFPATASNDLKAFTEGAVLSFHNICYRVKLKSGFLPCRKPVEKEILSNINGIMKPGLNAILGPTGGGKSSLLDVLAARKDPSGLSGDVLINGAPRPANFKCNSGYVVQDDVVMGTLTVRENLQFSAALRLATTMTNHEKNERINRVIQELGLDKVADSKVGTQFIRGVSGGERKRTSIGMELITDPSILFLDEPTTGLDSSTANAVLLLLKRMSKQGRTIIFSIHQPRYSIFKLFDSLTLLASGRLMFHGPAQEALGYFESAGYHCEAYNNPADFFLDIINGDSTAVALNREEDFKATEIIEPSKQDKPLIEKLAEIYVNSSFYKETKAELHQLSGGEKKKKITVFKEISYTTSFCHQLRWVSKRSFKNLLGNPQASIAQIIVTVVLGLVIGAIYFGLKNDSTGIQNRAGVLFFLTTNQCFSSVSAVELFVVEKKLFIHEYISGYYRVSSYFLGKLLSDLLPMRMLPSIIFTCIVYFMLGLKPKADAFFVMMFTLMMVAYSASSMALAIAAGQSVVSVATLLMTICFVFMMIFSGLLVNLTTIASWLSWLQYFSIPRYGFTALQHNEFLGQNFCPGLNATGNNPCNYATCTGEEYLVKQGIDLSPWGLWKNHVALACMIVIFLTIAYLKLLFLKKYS
Assay: TP_TRANSPORTER: inhibition of accumulation by antisense of BCRP in PC-6/SN2-5,PC-6/SN2-5H cells
Format: functional, cell-based

Activity: substrate [+]
Compound: CCc1c2c(nc3ccc(O)cc13)-c1cc3c(c(=O)n1C2)COC(=O)[C@]3(O)CC [7-ETHYL-10-HYDROXYCAMPTOTHECIN]

Reference: ChEMBL document CHEMBL2074424, “Breast cancer resistance protein directly confers SN-38 resistance of lung cancer cells” (Biochem Biophys Res Commun, 2001)
